This note sets out measurements from US9492460B2, “Carbazole compounds useful as bromodomain inhibitors” (Bristol-Myers Squibb Company, priority 2013, dated 2016).

The structures appear in SMILES notation.

The assay concerns the target T1, bromodomain BRD4 (44-168), BRD4 (333-460), and BRD4 (1-477 or 44-460) (Homo sapiens, UniProt O60885).
T1 construct: BRD4(44-168), BRD4(333-460), BRD4(44-460), BRD4(1-477), O60885-1; fused on or other part: N-terminal BirA biotinylation motif, biotinylated; The TVMV-cleavable His6 tag is removed, except in some BRD4(44-460) runs detected with anti-His terbium cryptate
The experiment in a line: Time Resolved Fluorescence Resonance Energy Transfer (TR-FRET) binding assay. Particulars: one of the FRET assays described. For orientation: Time-resolved FRET reads energy transfer from a long-lived donor to a nearby acceptor.

A word on the IC50: it is the concentration needed to halve the response being measured. Lower therefore signals higher potency. As to `Cc1noc(C)c1-c1cc(C(N)=O)c2c3cc(C(=O)N4CCC4)ccc3n(Cc3ccccc3)c2c1` [Example 71], the IC50 was less than 50 nM.

For the molecule `Cc1noc(C)c1-c1cc(C(N)=O)c2c3cc(C(=O)N4CCCC(C)(C)C4)ccc3n(Cc3ccccc3)c2c1` [Example 72], the IC50 was less than 50 nM. In turn, `Cc1noc(C)c1-c1cc(C(N)=O)c2c3cc(C(=O)N4CCCCC4C)ccc3n(Cc3ccccc3)c2c1` (stereo not shown) [Example 73] showed an IC50 of less than 50 nM. Under `Cc1noc(C)c1-c1cc(C(N)=O)c2c3cc(C(=O)N4CCC(C)CC4)ccc3n(Cc3ccccc3)c2c1` [Example 74] stands less than 50 nM. Under `Cc1noc(C)c1-c1cc(C(N)=O)c2c3cc(C(=O)NCCN4CCOCC4)ccc3n(Cc3ccccc3)c2c1` [Example 76] stands less than 50 nM.

In the case of `Cc1noc(C)c1-c1cc(C(N)=O)c2c3cc(C(=O)N4COCC4(C)C)ccc3n(Cc3ccccc3)c2c1` [Example 77], the IC50 is less than 50 nM. The molecule `Cc1noc(C)c1-c1cc(C(N)=O)c2c3cc(C(=O)N4CC(F)(F)C4)ccc3n(Cc3ccccc3)c2c1` [Example 78] yielded an IC50 of less than 50 nM. `Cc1noc(C)c1-c1cc(C(N)=O)c2c3cc(C(=O)N4CC[C@H](F)C4)ccc3n(Cc3c(F)cccc3F)c2c1` [Example 79, 9-(2,6-difluorobenzyl)-2-(3,5-dimethyl-4-isoxazolyl)-6-(((3S)-3-fluoro-1-pyrrolidinyl)carbonyl)-9H-carbazole-4-carboxamide] yielded an IC50 of less than 50 nM. The result for `Cc1noc(C)c1-c1cc(C(N)=O)c2c3cc(C(=O)N4CCC(F)C4)ccc3n(Cc3ccc(Cl)cc3)c2c1` (stereo not shown) [Example 80] reads less than 50 nM.

In turn, `Cc1noc(C)c1-c1cc(C(N)=O)c2c3cc(C(=O)N4CCC(F)C4)ccc3n(Cc3cccc(F)c3)c2c1` (stereo not shown) [Example 81] had an IC50 of less than 50 nM. Under `COc1ccccc1Cn1c2ccc(C(=O)N3CCC(F)C3)cc2c2c(C(N)=O)cc(-c3c(C)noc3C)cc21` (stereo not shown) [Example 82] stands less than 50 nM. In turn, `Cc1csc(Cn2c3ccc(C(=O)N4CCC(F)C4)cc3c3c(C(N)=O)cc(-c4c(C)noc4C)cc32)n1` (stereo not shown) [Example 83] returned an IC50 of less than 50 nM. Turning to `Cc1noc(C)c1-c1cc(C(N)=O)c2c3cc(C(=O)N4CCC(F)C4)ccc3n(C(C)c3ccccc3)c2c1` (stereo not shown) [Example 84], the IC50 was less than 50 nM. Under `Cc1noc(C)c1-c1cc(C(N)=O)c2c3cc(C(=O)N4CC(F)C4)ccc3n(C(C)c3ccccc3)c2c1` (stereo not shown) [Example 85, 2-(3,5-dimethyl-4-isoxazolyl)-6-((3-fluoro-1-azetidinyl)carbonyl)-9-(1-phenylethyl)-9H-carbazole-4-carboxamide] stands less than 50 nM; under `Cc1noc(C)c1-c1cc(C(N)=O)c2c3cc(C(=O)N4CC(F)C4)ccc3n(Cc3ccc(Cl)c(F)c3)c2c1` [Example 86], less than 50 nM.

As for `Cc1noc(C)c1-c1cc(C(N)=O)c2c3cc(C(=O)N4CC(F)C4)ccc3n(Cc3ccc(Cl)cc3F)c2c1` [Example 87], the IC50 is less than 50 nM. The molecule `Cc1noc(C)c1-c1cc(C(N)=O)c2c3cc(C(=O)N4CC(F)C4)ccc3n(C(C)c3cccc(C(F)(F)F)c3)c2c1` (stereo not shown) [Example 88] returned an IC50 of less than 50 nM. `Cc1noc(C)c1-c1cc(C(N)=O)c2c3cc(C(=O)N4CC(F)C4)ccc3n(C(C)c3ccccc3C(F)(F)F)c2c1` (stereo not shown) [Example 89] had an IC50 of less than 50 nM. Under `Cc1noc(C)c1-c1cc(C(N)=O)c2c3cc(C(=O)N4CC(F)C4)ccc3n(CC3CCC3)c2c1` [Example 90] stands less than 50 nM. The result for `Cc1noc(C)c1-c1cc(C(N)=O)c2c3cc(C(=O)N4CC(F)C4)ccc3n(C(C)c3ccc(F)cc3)c2c1` (stereo not shown) [Example 91] reads less than 50 nM; that for `Cc1noc(C)c1-c1cc(C(N)=O)c2c3cc(C(=O)N4CC(F)C4)ccc3n(CC3CC3)c2c1` [Example 92], less than 50 nM; that for `Cc1noc(C)c1-c1cc(C(N)=O)c2c3cc(C(=O)N4CC(F)C4)ccc3n(Cc3ccc(F)cc3)c2c1` [Example 93], less than 50 nM. As to `Cc1noc(C)c1-c1cc(C(N)=O)c2c3cc(C(=O)N4CC(F)C4)ccc3n(C(C)c3ccc(Cl)cc3)c2c1` (stereo not shown) [Example 94, 9-(1-(4-chlorophenyl)ethyl)-2-(3,5-dimethyl-4-isoxazolyl)-6-((3-fluoro-1-azetidinyl)carbonyl)-9H-carbazole-4-carboxamide], the IC50 was less than 50 nM. Under `Cc1noc(C)c1-c1cc(C(N)=O)c2c3cc(C(=O)N4CC(F)(F)C4)ccc3n(Cc3ccc(Cl)cc3)c2c1` [Example 95, 9-(4-chlorobenzyl)-6-((3,3-difluoro-1-azetidinyl)carbonyl)-2-(3,5-dimethyl-4-isoxazolyl)-9H-carbazole-4-carboxamide] stands less than 50 nM; under `CNC(=O)c1cc(-c2c(C)noc2C)cc2[nH]c3ccc(C(=O)N4CC(F)(F)C4)cc3c12` [Example 99, 6-((3,3-difluoro-1-azetidinyl)carbonyl)-2-(3,5-dimethyl-4-isoxazolyl)-N-methyl-9H-carbazole-4-carboxamide], less than 500 nM; under `CNC(=O)c1cc(-c2c(C)noc2C)cc2c1c1cc(C(=O)N3CC(F)(F)C3)ccc1n2Cc1ccc(Cl)cc1` [Example 100, 9-(4-chlorobenzyl)-6-(3,3-difluoroazetidine-1-carbonyl)-2-(3,5-dimethylisoxazol-4-yl)-N-methyl-9H-carbazole-4-carboxamide], less than 500 nM. Turning to `CNC(=O)c1cc(-c2c(C)noc2C)cc2[nH]c3ccc(C(=O)N4CC(F)C4)cc3c12` [Example 101, 2-(3,5-dimethyl-4-isoxazolyl)-6-((3-fluoro-1-azetidinyl)carbonyl)-N-methyl-9H-carbazole-4-carboxamide], the IC50 was less than 500 nM. For the molecule `CNC(=O)c1cc(-c2c(C)noc2C)cc2c1c1cc(C(=O)N3CC(F)C3)ccc1n2Cc1ccc(Cl)cc1` [Example 102, 9-(4-chlorobenzyl)-2-(3,5-dimethylisoxazol-4-yl)-6-(3-fluoroazetidine-1-carbonyl)-N-methyl-9H-carbazole-4-carboxamide], the IC50 is less than 50 nM.

As to `CNC(=O)c1cc(-c2c(C)noc2C)cc2c1c1cc(C(=O)N3CC(F)C3)ccc1n2Cc1ccc(F)cc1` [Example 103], the IC50 was less than 50 nM. In turn, `CNC(=O)c1cc(-c2c(C)noc2C)cc2c1c1cc(C(=O)N3CC(F)C3)ccc1n2Cc1cccc(F)c1` [Example 104] registered an IC50 of less than 50 nM.

`CNC(=O)c1cc(-c2c(C)noc2C)cc2c1c1cc(C(=O)N3CC(F)C3)ccc1n2Cc1c(F)cccc1F` [Example 105] returned an IC50 of less than 50 nM. Under `CNC(=O)c1cc(-c2c(C)noc2C)cc2c1c1cc(C(=O)N3CC(F)C3)ccc1n2Cc1ccc(F)cc1F` [Example 106] stands less than 500 nM; under `CNC(=O)c1cc(-c2c(C)noc2C)cc2c1c1cc(C(=O)N3CC(F)C3)ccc1n2Cc1cccc(F)c1F` [Example 107], less than 50 nM. Under `CNC(=O)c1cc(-c2c(C)noc2C)cc2c1c1cc(C(=O)N3CC(F)C3)ccc1n2Cc1ccc(C#N)cc1` [Example 108] stands less than 50 nM; under `CNC(=O)c1cc(-c2c(C)noc2C)cc2c1c1cc(C(=O)N3CC(F)C3)ccc1n2Cc1ccc(Cl)c(F)c1` [Example 109], less than 50 nM.

For the molecule `CNC(=O)c1cc(-c2c(C)noc2C)cc2c1c1cc(C(=O)N3CC(F)C3)ccc1n2Cc1ccc(Cl)cc1F` [Example 110], the IC50 is less than 50 nM. As to `CNC(=O)c1cc(-c2c(C)noc2C)cc2c1c1cc(C(=O)N3CC(F)C3)ccc1n2C(C)c1ccc(Cl)cc1` (stereo not shown) [Example 111], the concentration for half-maximal inhibition (IC50) is less than 50 nM.
